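Each compound was tested at five concentrations against cells in 96-well plates for 48 hours. GI50 = concentration required for 50% inhibition of growth. TGI: total growth inhibition.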
Experiments:
Assay in all cases: DTP human tumour cell line panel, 48 h
HCT-15 colon = tested on: HCT-15 colon
MOLT-4 leukemia = tested on: MOLT-4 leukemia
SF-539 CNS = tested on: SF-539 CNS
T-47D breast = tested on: T-47D breast
EKVX NSCLC = tested on: EKVX NSCLC
U251 CNS = tested on: U251 CNS
SK-OV-3 ovarian = tested on: SK-OV-3 ovarian
DU-145 prostate = tested on: DU-145 prostate
OVCAR-5 ovarian = tested on: OVCAR-5 ovarian
RPMI-8226 leukemia = tested on: RPMI-8226 leukemia
M14 melanoma = tested on: M14 melanoma
K-562 leukemia = tested on: K-562 leukemia
SNB-19 CNS = tested on: SNB-19 CNS
HOP-92 NSCLC = tested on: HOP-92 NSCLC
NCI-H23 lung = tested on: NCI-H23 lung
SK-MEL-2 melanoma = tested on: SK-MEL-2 melanoma
UACC-62 melanoma = tested on: UACC-62 melanoma
LOX IMVI melanoma = tested on: LOX IMVI melanoma
HL-60(TB) leukemia = tested on: HL-60(TB) leukemia
KM12 colon = tested on: KM12 colon
MDA-MB-231 breast = tested on: MDA-MB-231 breast
A498 renal = tested on: A498 renal
NCI-H460 lung = tested on: NCI-H460 lung
IGROV1 ovarian = tested on: IGROV1 ovarian
CCRF-CEM leukemia = tested on: CCRF-CEM leukemia
SNB-75 CNS = tested on: SNB-75 CNS
MALME-3M melanoma = tested on: MALME-3M melanoma
HCT-116 colon = tested on: HCT-116 colon
PC-3 prostate = tested on: PC-3 prostate
SF-268 CNS = tested on: SF-268 CNS
HCC-2998 colon = tested on: HCC-2998 colon
UO-31 renal = tested on: UO-31 renal
RXF 393 renal = tested on: RXF 393 renal
MCF7 breast = tested on: MCF7 breast
SK-MEL-28 melanoma = tested on: SK-MEL-28 melanoma
SW-620 colon = tested on: SW-620 colon
786-0 renal = tested on: 786-0 renal
UACC-257 melanoma = tested on: UACC-257 melanoma
COLO 205 colon = tested on: COLO 205 colon
HS 578T breast = tested on: HS 578T breast
TK-10 renal = tested on: TK-10 renal
SK-MEL-5 melanoma = tested on: SK-MEL-5 melanoma
SN12C renal = tested on: SN12C renal
HOP-62 NSCLC = tested on: HOP-62 NSCLC
HT29 colon = tested on: HT29 colon
MDA-MB-468 breast = tested on: MDA-MB-468 breast
NCI-H522 lung = tested on: NCI-H522 lung
ACHN renal = tested on: ACHN renal
OVCAR-3 ovarian = tested on: OVCAR-3 ovarian
NCI-H226 lung = tested on: NCI-H226 lung
MDA-MB-435 = tested on: MDA-MB-435
OVCAR-8 ovarian = tested on: OVCAR-8 ovarian
OVCAR-4 ovarian = tested on: OVCAR-4 ovarian
A549 NSCLC = tested on: A549 NSCLC
BT-549 breast = tested on: BT-549 breast
SF-295 CNS = tested on: SF-295 CNS
SR leukemia = tested on: SR leukemia
CAKI-1 renal = tested on: CAKI-1 renal

Structure (SMILES): N#CC1=C(c2cccs2)Nc2c(c(-c3ccccc3)nn2-c2ccccc2)C12C(=O)Nc1ccc(Cl)cc12 (stereo unspecified)
- GI50 (HCT-15 colon): 3.74 µM
- TGI (HCT-15 colon): 14.1 µM
- GI50 (MOLT-4 leukemia): 4.95 µM
- TGI (MOLT-4 leukemia): 23.4 µM
- GI50 (SF-539 CNS): 4.77 µM
- TGI (SF-539 CNS): 17 µM
- GI50 (T-47D breast): 5.84 µM
- TGI (T-47D breast): 33.8 µM
- GI50 (EKVX NSCLC): 4.33 µM
- TGI (EKVX NSCLC): 18 µM
- GI50 (U251 CNS): 3.88 µM
- TGI (U251 CNS): 14.4 µM
- GI50 (SK-OV-3 ovarian): 10.6 µM
- TGI (SK-OV-3 ovarian): 23.6 µM
- GI50 (DU-145 prostate): 13.9 µM
- TGI (DU-145 prostate): 30.3 µM
- GI50 (OVCAR-5 ovarian): 7.31 µM
- TGI (OVCAR-5 ovarian): 20.9 µM
- GI50 (RPMI-8226 leukemia): 4.3 µM
- TGI (RPMI-8226 leukemia): 27.5 µM
- GI50 (M14 melanoma): 4.94 µM
- TGI (M14 melanoma): 18.4 µM
- GI50 (K-562 leukemia): 4.46 µM
- TGI (K-562 leukemia): 34.1 µM
- GI50 (SNB-19 CNS): 3.12 µM
- TGI (SNB-19 CNS): 14.2 µM
- GI50 (HOP-92 NSCLC): 2.47 µM
- TGI (HOP-92 NSCLC): 7.94 µM
- GI50 (NCI-H23 lung): 5.57 µM
- TGI (NCI-H23 lung): 18.2 µM
- GI50 (SK-MEL-2 melanoma): 3.97 µM
- TGI (SK-MEL-2 melanoma): 14.6 µM
- GI50 (UACC-62 melanoma): 4.13 µM
- TGI (UACC-62 melanoma): 16.9 µM
- GI50 (LOX IMVI melanoma): 6.46 µM
- TGI (LOX IMVI melanoma): 20.4 µM
- GI50 (HL-60(TB) leukemia): 3.51 µM
- TGI (HL-60(TB) leukemia): 11.7 µM
- GI50 (KM12 colon): 3.66 µM
- TGI (KM12 colon): 13.6 µM
- GI50 (MDA-MB-231 breast): 4.52 µM
- TGI (MDA-MB-231 breast): 16.9 µM
- GI50 (A498 renal): 16.8 µM
- TGI (A498 renal): 31.2 µM
- GI50 (NCI-H460 lung): 4.07 µM
- TGI (NCI-H460 lung): 14.1 µM
- GI50 (IGROV1 ovarian): 4.93 µM
- TGI (IGROV1 ovarian): 17.7 µM
- GI50 (CCRF-CEM leukemia): 3.35 µM
- TGI (CCRF-CEM leukemia): 20.7 µM
- GI50 (SNB-75 CNS): 2.6 µM
- TGI (SNB-75 CNS): 13 µM
- GI50 (MALME-3M melanoma): 14.3 µM
- TGI (MALME-3M melanoma): 27.4 µM
- GI50 (HCT-116 colon): 3.95 µM
- TGI (HCT-116 colon): 16.3 µM
- GI50 (PC-3 prostate): 3.18 µM
- TGI (PC-3 prostate): 15.2 µM
- GI50 (SF-268 CNS): 3.52 µM
- TGI (SF-268 CNS): 19 µM
- GI50 (HCC-2998 colon): 7.13 µM
- TGI (HCC-2998 colon): 19.8 µM
- GI50 (UO-31 renal): 2.54 µM
- TGI (UO-31 renal): 12.2 µM
- GI50 (RXF 393 renal): 3.14 µM
- TGI (RXF 393 renal): 13.3 µM
- GI50 (MCF7 breast): 4.95 µM
- TGI (MCF7 breast): 19.4 µM
- GI50 (SK-MEL-28 melanoma): 11.1 µM
- TGI (SK-MEL-28 melanoma): 23.2 µM
- GI50 (SW-620 colon): 4.56 µM
- TGI (SW-620 colon): 16.6 µM
- GI50 (786-0 renal): 6.43 µM
- TGI (786-0 renal): 20.6 µM
- GI50 (UACC-257 melanoma): 12.9 µM
- TGI (UACC-257 melanoma): 25.8 µM
- GI50 (COLO 205 colon): 14.3 µM
- TGI (COLO 205 colon): 29.5 µM
- GI50 (HS 578T breast): 3.22 µM
- TGI (HS 578T breast): 18.6 µM
- GI50 (TK-10 renal): 5.81 µM
- TGI (TK-10 renal): 20.5 µM
- GI50 (SK-MEL-5 melanoma): 10.8 µM
- TGI (SK-MEL-5 melanoma): 23.1 µM
- GI50 (SN12C renal): 4.46 µM
- TGI (SN12C renal): 16.8 µM
- GI50 (HOP-62 NSCLC): 7.02 µM
- TGI (HOP-62 NSCLC): 21.4 µM
- GI50 (HT29 colon): 4.82 µM
- TGI (HT29 colon): 17.1 µM
- GI50 (MDA-MB-468 breast): 4.45 µM
- TGI (MDA-MB-468 breast): 16.6 µM
- GI50 (NCI-H522 lung): 2.6 µM
- TGI (NCI-H522 lung): 9.87 µM
- GI50 (ACHN renal): 4.05 µM
- TGI (ACHN renal): 14.8 µM
- GI50 (OVCAR-3 ovarian): 6.88 µM
- TGI (OVCAR-3 ovarian): 19.7 µM
- GI50 (NCI-H226 lung): 11.6 µM
- TGI (NCI-H226 lung): 28.2 µM
- GI50 (MDA-MB-435): 11.1 µM
- TGI (MDA-MB-435): 23.9 µM
- GI50 (OVCAR-8 ovarian): 4.92 µM
- TGI (OVCAR-8 ovarian): 17.9 µM
- GI50 (OVCAR-4 ovarian): 4.77 µM
- TGI (OVCAR-4 ovarian): 21.1 µM
- GI50 (A549 NSCLC): 4.12 µM
- TGI (A549 NSCLC): 15.9 µM
- GI50 (BT-549 breast): 3.02 µM
- TGI (BT-549 breast): 13.1 µM
- GI50 (SF-295 CNS): 3.74 µM
- TGI (SF-295 CNS): 15.9 µM
- GI50 (SR leukemia): 4.93 µM
- TGI (SR leukemia): 36.3 µM
- GI50 (CAKI-1 renal): 5.26 µM
- TGI (CAKI-1 renal): 18.6 µM

Source: PubChem BioAssay (NCI)
